# Like-named read-outs stand apart in the source and are kept apart here.
# Tests used:
# [1] = assay type: physicochemical
# [2] = Effect of contaminant zinc on ^177Lu-B labeling with PDTC in reaction buffer (Example 20); assay type: physicochemical; conditions: Sample 2: COMPOUND B with ^177Lu in the presence of zinc and PDTC (COMPOUND B:^177Lu:Zinc 3:1:3)
# Procedure: The injection volume was 10 μL.
# At times, ^177LuCl3 isotope solutions are contaminated with non-radioactive metals that can interfere with radiolabeling. These metals (which may include, for example Zn, Cu, Ca and Fe among others), can compete with ^177Lu for the chelator, thus lowering reaction yields by consuming ligand so it is unavailable for chelation to ^177Lu.
# A 10-mg/mL solution of 1pyrrolidine dithiocarbamic acid ammonium salt was prepared by dissolving it in sodium acetate buffer (0.2 M, pH 4.8). To a lead-shielded, 300-μL sample vial was added 86.5 μL of the NaOAc buffer solution, 13.7 mCi ^177LuCl3, 0.6525 μg zinc (6.52 μL of a 100-μg/mL zinc plasma standard solution) and 15 μg COMPOUND B (dissolved in water). This was labeled as ‘Sample 1’. To another lead-shielded, 300-μL sample vial was added 86.5 μL of the […] 1-pyrrolidine dithiocarbamic acid ammonium salt/NaOAc buffer solution, 13.8 mCi ^177LuCl3, 0.6525 μg zinc and 15 μg COMPOUND B. This was labeled as ‘Sample 2’. The concentration of COMPOUND B in each sample was 150 μg/mL and the molar ratio of COMPOUND B:^177Lu:Zinc for each sample was 3:1:3. The samples were heated to 100° C. for 5 min, and then cooled for 5 min in an ambient-temperature water bath. To each sample, 10 μL of 2% Na2EDTA.2H2O in water was added, and then each was analyzed by HPLC, using HPLC Method 5.
# [3] = assay type: physicochemical; remark: listed apart in the source
# Procedure: The injection volume was 20 μL.
# Solutions of 1-pyrrolidine dithiocarbamic acid ammonium salt (PDTC) were prepared at concentrations of 20-, 10-, 5- and 1 mg/mL by dissolving it in a sodium acetate (NaOAc) buffer solution (0.2 M, pH 4.8). To lead-shielded 300-μL sample vials were added, individually, 50-μL aliquots of the PDTC-NaOAc butter solutions, including an aliquot of the NaOAc buffer only, to serve as a control sample. To each buffer aliquot was added 9.95 mCi ^177LuCl3 (avg) and 17.2 μg COMPOUND A (dissolved in water). The molar ratio of COMPOUND A:Lu (total Lu) for each sample was 3:1. During the reaction, in each sample, the concentration of COMPOUND A was 287-μg/mL and the activity concentration was 167-mCi/mL. The samples wore heated to 100° C. for 5 minutes, then cooled for 5 minutes in an ambient-temperature water bath. To each sample, 10 μL of 2% EDTA in water was added, and then each was analyzed by HPLC (Method 3) over 48 hours. At t=0, the radioactivity concentration was 143 mCi/mL.
# [4] = assay type: physicochemical; remark: listed apart in the source
# Procedure: The ratio of COMPOUND A to Lutetium was 3:1 for all samples. The reaction mixtures were heated, cooled, treated with Na2EDTA.2H2O and analyzed by HPLC as described in Example 13, and then stored at room temperature for 24 hours, at which time all samples were analyzed again.
# [5] = ^177Lu-A prepared with PDTC 1 mg/mL (0.05 mg)
# [6] = ^177Lu-A prepared with PDTC 5 mg/mL (0.25 mg)
# [7] = ^177Lu-A prepared with PDTC 10 mg/mL (0.5 mg)
# [8] = ^177Lu-A prepared with PDTC 20 mg/mL (1 mg)
smiles,measurement,setting,value
"N.S=C(S)N1CCCC1 [PDTC, 1-pyrrolidine dithiocarbamic acid ammonium salt]",(% RCP) 6-h,"[1]; ^177Lu-B (44-53 mCi) formulated with 5 mg stabilizing compound, 6 h",94.7%
same,(% RCP) 24-h,"[1]; ^177Lu-B (44-53 mCi) formulated with 5 mg stabilizing compound, 24 h",94.0%
same,(% RCP) 0-h,"[1]; ^177Lu-B (44-53 mCi) formulated with 5 mg stabilizing compound, diluted to ~2 mL, ~6° C. above room temperature, 0 h",95.0%
same,RCP Drop over 24 hr,"[1]; ^177Lu-B formulated with 5 mg stabilizing compound, 0 to 24 h",1%
same,RCP,[2],100%
same,RCP (%) 0-h,"[3]; ^177Lu-A 143 mCi/mL at t=0, prepared with PDTC 1 mg/mL (0.05 mg)",100%
same,RCP (%) 0-h,"[3]; ^177Lu-A 143 mCi/mL at t=0, prepared with PDTC 5 mg/mL (0.25 mg)",100%
same,RCP (%) 0-h,"[3]; ^177Lu-A 143 mCi/mL at t=0, prepared with PDTC 10 mg/mL (0.5 mg)",100%
same,RCP (%) 0-h,"[3]; ^177Lu-A 143 mCi/mL at t=0, prepared with PDTC 20 mg/mL (1 mg)",100%
same,RCP (%) 3-h,[3]; [5],100%
same,RCP (%) 6-h,[3]; [5],17.2%
same,RCP (%) 12-h,[3]; [5],0%
same,RCP (%) 24-h,[3]; [5],0%
same,RCP (%) 3-h,[3]; [6],100%
same,RCP (%) 6-h,[3]; [6],100%
same,RCP (%) 12-h,[3]; [6],100%
same,RCP (%) 24-h,[3]; [6],0%
same,RCP (%) 3-h,[3]; [7],100%
same,RCP (%) 6-h,[3]; [7],100%
same,RCP (%) 12-h,[3]; [7],100%
same,RCP (%) 24-h,[3]; [7],100%
same,RCP (%) 48-h,[3]; [7],100%
same,RCP (%) 3-h,[3]; [8],100%
same,RCP (%) 6-h,[3]; [8],100%
same,RCP (%) 12-h,[3]; [8],100%
same,RCP (%) 24-h,[3]; [8],100%
same,RCP (%) 48-h,[3]; [8],100%
same,RCP for up to 48 hours,"[3]; ^177Lu-A, PDTC at 20 mg/mL",100%
same,RCP % t = 0 h,"[4]; ^177Lu-A (4.65-5.64 mCi) prepared in presence of stabilizer 5 mg/mL, 0 h",100%
same,RCP % t = 24 h,"[4]; ^177Lu-A prepared in presence of stabilizer 5 mg/mL, room temperature, 24 h",99.9%
